Patent US20080233127A1, “IMIDAZOLOPYRIMIDINE ANALOGS AND THEIR USE AS PI3 KINASE AND MTOR INHIBITORS” (Wyeth, priority 2007, published 2008)

Tests used:
human TOR = molecular target: T1, human TOR (Homo sapiens, UniProt P42345); test: mTOR enzyme assay (DELFIA format, purified FLAG-TOR, His6-S6K substrate); assay type: biochemical; details: 100 μM ATP, 1.25 μM His6-S6K, 2 hours at room temperature; read-out: TOR Kinase Median IC50
T1 construct: FLAG

PI3 Kinase = test: PI3K fluorescence polarization assay; assay type: biochemical; details: 25 μM ATP, diC8-PI(4,5)P2 substrate, 1 hour at 25° C.; read-out: PI3 Kinase Median IC50
Procedure: Nunc 384 well black polypropylene fluorescent plates are used for PI3K assays. Reactions are quenched by the addition of EDTA to a final concentration of 10 mM. Final reaction volumes are 10 μl. […] Reactions are allowed to proceed for one hour at 25° C. After 1 hour, GST-tagged GRP1 (general receptor for phosphoinositides) PH domain fusion protein is added to a final concentration of 100 nM, and BODIPY-TMRI(1,3,4,5)P4 (Echelon) is also added to a final concentration of 5 nM. Final sample volumes are 25 μl with a final DMSO concentration of 0.8%. Assay Plates are read on Perkin-Elmer Envision plate readers with appropriate filters for Tamra [BODIPY-TMRI(1,3,4,5)P4].

Structure (SMILES)	IC50 (human TOR) [nM]	IC50 (PI3 Kinase) [nM]
c1csc(-c2nc(N3CCOCC3)c3nc[nH]c3n2)c1 [Compound 1, 6-morpholin-4-yl-2-(2-thienyl)-9H-purine]	2800	724
c1nc2c(N3CCOCC3)nc(-c3ccsc3)nc2[nH]1 [Compound 2, 6-morpholin-4-yl-2-(3-thienyl)-9H-purine]	3900	3290
Oc1ccccc1-c1nc(N2CCOCC2)c2nc[nH]c2n1 [Compound 3, 2-(6-morpholin-4-yl-9H-purin-2-yl)phenol]	2500	
Oc1ccc(-c2nc(N3CCOCC3)c3nc[nH]c3n2)cc1 [Compound 4, 4-(6-morpholin-4-yl-9H-purin-2-yl)phenol]	450	2680
OCc1ccc(-c2nc(N3CCOCC3)c3nc[nH]c3n2)cc1 [Compound 5, [4-(6-morpholin-4-yl-9H-purin-2-yl)phenyl]methanol]	4500	3750
c1cc2cc(-c3nc(N4CCOCC4)c4nc[nH]c4n3)ccc2[nH]1 [Compound 6, 2-(1H-indol-5-yl)-6-morpholin-4-yl-9H-purine]	180	2750
c1nc2c(N3CCOCC3)nc(-c3ccc4c(c3)OCO4)nc2[nH]1 [Compound 7, 2-(1,3-benzodioxol-5-yl)-6-morpholin-4-yl-9H-purine]	8900	1230
O=[N+]([O-])c1cccc(-c2nc(N3CCOCC3)c3nc[nH]c3n2)c1 [Compound 8, 6-morpholin-4-yl-2-(3-nitrophenyl)-9H-purine]		8900
c1ccc2c(-c3nc(N4CCOCC4)c4nc[nH]c4n3)csc2c1 [Compound 9, 2-(1-benzothien-3-yl)-6-morpholin-4-yl-9H-purine]		2000
FC(F)(F)c1cccc(-c2nc(N3CCOCC3)c3nc[nH]c3n2)c1 [Compound 10, 6-morpholin-4-yl-2-[3-(trifluoromethyl)phenyl]-9H-purine]		5710
Cc1cccc(-c2nc(N3CCOCC3)c3nc[nH]c3n2)c1 [Compound 11, 2-(3-methylphenyl)-6-morpholin-4-yl-9H-purine]		4210
CC(C)c1cccc(-c2nc(N3CCOCC3)c3nc[nH]c3n2)c1 [Compound 12, 2-(3-isopropylphenyl)-6-morpholin-4-yl-9H-purine]		9920
N#Cc1cccc(-c2nc(N3CCOCC3)c3nc[nH]c3n2)c1 [Compound 13, 3-(6-morpholin-4-yl-9H-purin-2-yl)benzonitrile]		3590
c1ccc(-c2cccc(-c3nc(N4CCOCC4)c4nc[nH]c4n3)c2)cc1 [Compound 14, 2-biphenyl-3-yl-6-morpholin-4-yl-9H-purine]		4440
c1ccc(Oc2ccccc2-c2nc(N3CCOCC3)c3nc[nH]c3n2)cc1 [Compound 16, 6-morpholin-4-yl-2-(2-phenoxyphenyl)-9H-purine]		8940
CN(C)C(=O)c1ccc(-c2nc(N3CCOCC3)c3nc[nH]c3n2)cc1 [Compound 17, N,N-dimethyl-4-(6-morpholin-4-yl-9H-purin-2-yl)benzamide]		5930
c1nc2c(N3CCOCC3)nc(-c3ccoc3)nc2[nH]1 [Compound 19, 2-(3-furyl)-6-morpholin-4-yl-9H-purine]		4340
Oc1cccc(-c2nc(N3CCCCC3)c3nc[nH]c3n2)c1 [Compound 21, 3-(6-Piperidin-1-yl-9H-purin-2-yl)-phenol]		4300
CS(=O)(=O)c1ccc(-c2nc(N3CCOCC3)c3nc[nH]c3n2)cc1 [Compound 22, 2-(4-Methanesulfonyl-phenyl)-6-morpholin-4-yl-9H-purine]		2160
COc1cc(COc2cccc(-c3nc(N4CCOCC4)c4nc[nH]c4n3)c2)cc(OC)c1 [Compound 23, 2-[3-(3,5-Dimethoxy-benzyloxy)-phenyl]-6-morpholin-4-yl-9H-purine]	16500	6200
Clc1cc(-c2nc(N3CCOCC3)c3nc[nH]c3n2)ccc1OCc1ccccc1 [Compound 24, 2-(4-Benzyloxy-3-chloro-phenyl)-6-morpholin-4-yl-9H-purine]	> 20000	4530
OCc1cccc(-c2nc(N3CCOCC3)c3ncn(C4CCNCC4)c3n2)c1 [Compound 25, [3-(6-Morpholin-4-yl-9-piperidin-4-yl-9H-purin-2-yl)-phenyl]-methanol]	7200	57

Structure (SMILES)	IC50 (human TOR) [nM]	IC50 (PI3 Kinase) [nM]
CC(=O)N1CCC(n2cnc3c(N4CCOCC4)nc(-c4cccc(CO)c4)nc32)CC1 [Compound 26, 1-(4-(2-(3-(hydroxymethyl)phenyl)-6-morpholino-9H-purin-9-yl)piperidin-1-yl)ethanone]	2100	189
Oc1cccc(-c2nc(N3CCOCC3)c3ncn(CC4CCN(Cc5ccccc5)CC4)c3n2)c1 [Compound 27, 3-(9-((1-benzylpiperidin-4-yl)methyl)-6-morpholino-9H-purin-2-yl)phenol]	600	193
Oc1cccc(-c2nc(N3CCOCC3)c3ncn(C4CCN(Cc5ccccc5)CC4)c3n2)c1 [Compound 28, 3-(9-(1-benzylpiperidin-4-yl)-6-morpholino-9H-purin-2-yl)phenol]	140	
OCc1cccc(-c2nc(N3CCOCC3)c3ncn(CC4CCN(Cc5ccccc5)CC4)c3n2)c1 [Compound 29, (3-(9-((1-benzylpiperidin-4-yl)methyl)-6-morpholino-9H-purin-2-yl)phenyl)methanol]	10500	243
OCc1cccc(-c2nc(N3CCOCC3)c3ncn(C4CCN(Cc5ccccc5)CC4)c3n2)c1 [Compound 33, {3-[9-(1-benzylpiperidin-4-yl)-6-morpholin-4-yl-9H-purin-2-yl]phenyl}methanol]	700	
O=Cc1cncc(-c2nc(N3CCOCC3)c3ncn(C4CCN(Cc5ccccc5)CC4)c3n2)c1 [Compound 34, 5-[9-(1-benzylpiperidin-4-yl)-6-morpholin-4-yl-9H-purin-2-yl]nicotinaldehyde]	170	77
OCc1cncc(-c2nc(N3CCOCC3)c3ncn(C4CCN(Cc5ccccc5)CC4)c3n2)c1 [Compound 35, {5-[9-(1-benzylpiperidin-4-yl)-6-morpholin-4-yl-9H-purin-2-yl]pyridin-3-yl}methanol]	1000	63
Oc1cncc(-c2nc(N3CCOCC3)c3ncn(C4CCNCC4)c3n2)c1 [Compound 36, 5-(6-morpholin-4-yl-9-piperidin-4-yl-9H-purin-2-yl)pyridin-3-ol]	970	14
Cc1ccc(CN2CCC(n3cnc4c(N5CCOCC5)nc(-c5cncc(O)c5)nc43)CC2)s1 [Compound 37, 5-(9-{1-[(5-methyl-2-thienyl)methyl]piperidin-4-yl}-6-morpholin-4-yl-9H-purin-2-yl)pyridin-3-ol]	140	26
Oc1cncc(-c2nc(N3CCOCC3)c3ncn(C4CCN(Cc5ccc(Cl)cc5)CC4)c3n2)c1 [Compound 38, 5-{9-[1-(4-chlorobenzyl)piperidin-4-yl]-6-morpholin-4-yl-9H-purin-2-yl}pyridin-3-ol]	160	
Oc1cncc(-c2nc(N3CCOCC3)c3ncn(C4CCN(Cc5ccc[nH]5)CC4)c3n2)c1 [Compound 39, 5-{6-morpholin-4-yl-9-[1-(1H-pyrrol-2-ylmethyl)piperidin-4-yl]-9H-purin-2-yl}pyridin-3-ol]	940	31
Cc1ccc(CN2CCC(n3cnc4c(N5CCOCC5)nc(-c5cncc(O)c5)nc43)CC2)cc1 [Compound 40, 5-{9-[1-(4-methylbenzyl)piperidin-4-yl]-6-morpholin-4-yl-9H-purin-2-yl}pyridin-3-ol]	590	
Oc1cncc(-c2nc(N3CCOCC3)c3ncn(C4CCN(Cc5ccc(F)nc5)CC4)c3n2)c1 [Compound 41, 5-{9-[1-(6-fluoro-pyridin-3-ylmethyl)-piperidin-4-yl]-6-morpholin-4-yl-9H-purin-2-yl}-pyridin-3-ol]	570	94
COc1cncc(-c2nc(N3CCOCC3)c3nc[nH]c3n2)c1 [Compound 42, 2-(5-methoxypyridin-3-yl)-6-morpholin-4-yl-9H-purine]	3000	598
Oc1cncc(-c2nc(N3CCOCC3)c3nc[nH]c3n2)c1 [Compound 43, 5-(6-morpholin-4-yl-9H-purin-2-yl)pyridin-3-ol]	620	11
OCc1cccc(-c2nc(N3CCOCC3)c3ncn(C4CCN(Cc5ccc(-c6ccncc6)cc5)CC4)c3n2)c1 [Compound 47, (3-{6-morpholin-4-yl-9-[1-(4-pyridin-4-ylbenzyl)piperidin-4-yl]-9H-purin-2-yl}phenyl)methanol]	720	
OCc1cccc(-c2nc(N3CCOCC3)c3ncn(C4CCN(Cc5ccccc5)CC4)c3n2)c1 [Compound 51, {3-[9-(1-benzylpiperidin-4-yl)-6-morpholin-4-yl-9H-purin-2-yl]phenyl}methanol]	1000	
COc1cccc(-c2nc(N3CCOCC3)c3nc[nH]c3n2)c1 [Compound 53, 4-(2-(3-methoxyphenyl)-9H-purin-6-yl)morpholine]	> 20000	
c1ccc(-c2nc(N3CCOCC3)c3nc[nH]c3n2)cc1 [Compound 54, 4-(2-phenyl-9H-purin-6-yl)morpholine]	19000	
Oc1cccc(-c2nc(N3CCOCC3)c3nc[nH]c3n2)c1 [Compound 55, 3-(6-morpholino-9H-purin-2-yl)phenol]	2120	
Oc1cccc(-c2nc(N3CCOCC3)c3ncn(C4CCN(Cc5cccnc5)CC4)c3n2)c1 [Compound 76, 3-{6-morpholin-4-yl-9-[1-(pyridin-3-ylmethyl)piperidin-4-yl]-9H-purin-2-yl}phenol]	170	
Oc1cccc(-c2nc(N3CCOCC3)c3ncn(C4CCN(Cc5ccc(Br)nc5)CC4)c3n2)c1 [Compound 81, 3-(9-{1-[(6-bromopyridin-3-yl)methyl]piperidin-4-yl}-6-morpholin-4-yl-9H-purin-2-yl)phenol]	120	
